One assay concerns 2B4/MCL-1. Put plainly: caspase activation in 2B4/MCL-1 versus 2B4/BCL-2 cells, late-stage follow-up, selectivity assay for MCL1-BIM inhibitor project, cell-based, fluorescence, assay provider data (AID 493062). The settings on record: 2B4/MCL-1 caspase activation fluorescence.
Another assay relates to 2B4/BCL-2. The assay is described as above. The following applies: 2B4/MCL-1 caspase activation fluorescence.

Molecules are shown by their SMILES.

Take `COc1ccc(Cc2nnc(NC(=O)Cc3ccc4ccccc4c3)s2)cc1OC`: the EC50 in the assay on 2B4/MCL-1 and in the assay on 2B4/BCL-2 was > 25 µM in each case.
Regarding `COc1ccccc1NC(=O)c1cc(-c2ccc(C)o2)nc2ccccc12`, the concentration for a half-maximal effect (EC50) in the assay with 2B4/MCL-1 and with 2B4/BCL-2 was > 25 µM in each case.
Take `CCCC(=O)Nc1nnc(Cc2ccccc2)s1`: the EC50 in the assay with 2B4/MCL-1 and with 2B4/BCL-2 was > 25 µM each time.
As for `O=C(Nc1ccccc1F)c1cc(-c2ccco2)nc2ccccc12`, the EC50 in the assay with 2B4/MCL-1 and with 2B4/BCL-2 was > 25 µM in each case.
In the case of `CCCCn1c(N)c(N(CC(C)C)C(=O)c2cc(-c3ccco3)nc3ccccc23)c(=O)[nH]c1=O`, the EC50 in the assay with 2B4/MCL-1 and with 2B4/BCL-2 was > 25 µM throughout.
For the molecule `CCCCn1c(N)c(N(CCC(C)C)C(=O)c2cc(-c3ccco3)nc3ccccc23)c(=O)[nH]c1=O`, the EC50 with 2B4/MCL-1 and in the assay with 2B4/BCL-2 was > 25 µM each time.
`COc1ccc(NC(=O)c2cc(-c3ccco3)nc3ccccc23)cc1`: the EC50 in the assay on 2B4/MCL-1 and in the assay with 2B4/BCL-2 was > 25 µM in each case.
Take `COc1ccc(Cc2nnc(NC(=O)Cc3ccc(N(C)C)cc3)s2)cc1OC`: the EC50 in the assay on 2B4/MCL-1 and in the assay with 2B4/BCL-2 was > 25 µM in each case.
With `CCN(CC)C(=O)COc1ccc2c(-c3ccccc3)cc(=O)oc2c1`, the EC50 with 2B4/MCL-1 and in the assay on 2B4/BCL-2 was > 25 µM throughout.
On to `COC(=O)C1CCN(C(=O)c2cc(-c3ccco3)nc3ccccc23)CC1`, for which the EC50 in the assay with 2B4/MCL-1 and in the assay on 2B4/BCL-2 was > 25 µM in each case.
Consider `CC(=O)c1cccc(NC(=O)c2cc(-c3ccco3)nc3ccccc23)c1`, for which the EC50 in the assay with 2B4/MCL-1 and in the assay on 2B4/BCL-2 was > 25 µM throughout.

The term EC50 denotes the concentration that produces a half-maximal response. A high value points to lower potency in that assay.
